Reference: paper PMC12531613, “Synthesis and Biological Evaluation of Novel 2‐(Piperidin‐4‐yl)‐1,2,3,4‐tetrahydroisoquinoline and 2‐(Piperidin‐4‐yl)decahydroisoquinoline Antimycotics” (Archiv Der Pharmazie, 2025)
≈ marks a conversion by molar mass, not a printed value. Like-named read-outs stand apart in the source and are kept apart here.

What was measured:
Format in all cases: cell-based
[1] = MTT cytotoxicity assay against HL 60 cells; details: human, HL-60 cells (human leukemia cells); HL 60 cell line; MTT assay; read-out: IC50 cytotoxicity
Procedure: The cytotoxicity of the active compounds was checked in an MTT assay against human HL 60 cells. […] Although, this corresponds to the MIC range that would be needed in treatment, the values are within the range observed for commonly used antimycotics such as amorolfine and posaconazole. All active compounds were evaluated for their biopharmaceutical behavior and drug‐likeness using the online program SwissADME [26] and should show oral bioavailability according to the Lipinski rules of five.
HL‐60 cells (human leukemia cells, DSM No. ACC3) were obtained from DSMZ (German Collection of Microorganisms and Cell Cultures, Braunschweig, Germany) and cultivated in RPMI 1640 medium with 10% fetal bovine serum (FBS), both from PAA Laboratories, Cölbe, Germany) without the addition of antibiotics at 37°C in a humidified atmosphere containing 5% CO2. The assay was performed according to lit.

[2] = system: Yarrowia lipolytica; assay: MIC100 microdilution assay against Yarrowia lipolytica
Procedure: In previous research we found a good correlation between MIC values against Yarrowia lipolytica and pathogenic Candida species.
Determination of MICs against Yarrowia lipolytica (DSMZ, Braunschweig, Germany) was carried out according to lit. Yarrowia lipolytica was cultivated in AC‐agar (Sigma Aldrich). Concentration of yeast cells was determined by photometer and adjusted to a turbidity of 0.5 according to McFarland standard at 600 nm. All substances were dissolved in DMSO or methanol.
Determination of MICs (minimal inhibitory concentration) against Yarrowia lipolytica was carried out according to Lit.^[13] Concentration of yeast cells was determined by photometer and adjusted to a turbitity of 0.5 according to McFarland Standard.

[3] = system: A. fumigatus (A65); assay: MIC90 growth inhibition of molds (EUCAST), A. fumigatus (A65); details: Aspergillus fumigatus, RPMI 1640, 2% glucose, read by eye and microscopically
Procedure: Determination of MICs (minimal inhibitory concentration) against Candida species was carried out according to the European Committee of Antifungal Susceptibility Testing. Concentration of yeast cells was determined by photometer and adjusted to a turbidity of 0.5 according to McFarland standard. […] Growth inhibition of molds was determined by eye and microscopically, following EUCAST guidelines. […] All assays were carried out twice.

[4] = system: R. microsporus; assay: MIC90 growth inhibition of molds (EUCAST), R. microsporus; details: Rhizopus microsporus
Procedure: (§1) Determination of MICs (minimal inhibitory concentration) against Candida species was carried out according to the European Committee of Antifungal Susceptibility Testing. Concentration of yeast cells was determined by photometer and adjusted to a turbidity of 0.5 according to McFarland standard. MIC90 was determined by microdilution plate reader (Sunrise Tecan) at 450 nm, after 24 h incubation at 37°C. MIC90 was defined as the minimal concentration of chemical causing 90% growth inhibition, respectively. Growth inhibition of molds was determined by eye and microscopically, following EUCAST guidelines. All substances were dissolved in DMSO and diluted in RPMI 1640 medium, containing 2% glucose. All assays were carried out twice.

[5] = system: C. krusei; assay: MIC90 microdilution (EUCAST), C. krusei; details: Pichia kudriavzevii, 24 h
Procedure: as §1

[6] = system: A. fumigatus (R16); assay: MIC90 growth inhibition of molds (EUCAST), A. fumigatus (R16); details: Aspergillus fumigatus
Procedure: as §1

[7] = system: A. fumigatus (R7); assay: MIC90 growth inhibition of molds (EUCAST), A. fumigatus (R7); details: Aspergillus fumigatus
Procedure: as §1

[8] = system: C. albicans; assay: MIC90 microdilution (EUCAST), C. albicans; details: Candida albicans, 24 h
Procedure: as §1

[9] = system: C. glabrata; assay: MIC90 microdilution (EUCAST), C. glabrata; details: Nakaseomyces glabratus, 24 h
Procedure: as §1

[10] = system: R. arrhizus (oryzae); assay: MIC90 growth inhibition of molds (EUCAST), R. arrhizus (oryzae); details: Rhizopus arrhizus
Procedure: as §1

[11] = 48 h, read-out: Biological Activity MIC Yarrowia lipolytica

With `CCCCCCCCN1CCC(N2CCC3CCCCC3C2)CC1` (racemic) [6h, (±)‐2‐(1‐Octylpiperidin‐4‐yl)decahydroisoquinoline] the IC50 [1] was 75 µg/mL (≈ 224 µM), the MIC [2, 11] was 3.1 µg/mL and the MIC ([2]; 48 h, read-out: MIC100) was 3.1 µg/mL. The MIC90 [3] was over 32 µg/mL, the MIC90 [4] was over 32 µg/mL and the MIC90 [5] was 8 µg/mL (≈ 23.9 µM). For the same molecule, the MIC90 [6] was over 32 µg/mL, the MIC90 [7] was over 32 µg/mL and the MIC90 [8] was over 32 µg/mL. The MIC90 [9] was over 32 µg/mL and the MIC ([10]; read-out: MIC90) was 32 µg/mL (≈ 95.6 µM).

`CCCCCCCC(=O)N1CCC(N2CCC3CCCCC3C2)CC1` (racemic) [5h, (±)‐1‐[4‐(Octahydroisoquinolin‐2(1H)‐yl)piperidin‐1‐yl]octan‐1‐one] showed an MIC [2, 11] of over 100 µg/mL and an MIC ([2]; 48 h, read-out: MIC100) of over 100 µg/mL.

Work on `CC(C)(C)OC(=O)N1CCC(N2CCC3CCCCC3C2)CC1` (stereo not shown) [3c, tert‐Butyl 4‐(octahydroisoquinolin‐2(1H)‐yl)piperidine‐1‐carboxylate] yielded an MIC [2, 11] of over 100 µg/mL and an MIC ([2]; 48 h, read-out: MIC100) of over 100 µg/mL.

Work on `CCCCCCCC(=O)N1CCC(N2CCc3ccccc3C2)CC1` [5b, 1‐[4‐(3,4‐Dihydroisoquinolin‐2(1H)‐yl)piperidin‐1‐yl]octan‐1‐one] yielded an MIC [2, 11] of over 100 µg/mL and an MIC ([2]; 48 h, read-out: MIC100) of over 100 µg/mL.

Work on `OC(Cn1cncn1)(Cn1cncn1)c1ccc(F)cc1F` [FLZ, fluconazole, reference compound] yielded an MIC90 [3] of 32 µg/mL (≈ 104 µM), an MIC90 ([4]; R. microsporus, RPMI 1640, 2% glucose, read by eye and microscopically, read-out: MIC90) of over 32 µg/mL and an MIC90 ([5]; C. krusei, RPMI 1640, 2% glucose, 37°C, duplicate, read-out: MIC90) of 8 µg/mL (≈ 26.1 µM). The MIC90 ([6]; A. fumigatus (R16), RPMI 1640, 2% glucose, read by eye and microscopically, read-out: MIC90) was over 32 µg/mL, the MIC90 ([7]; A. fumigatus (R7), RPMI 1640, 2% glucose, read by eye and microscopically, read-out: MIC90) was 16 µg/mL (≈ 52.2 µM) and the MIC90 ([8]; C. albicans, RPMI 1640, 2% glucose, 37°C, duplicate, read-out: MIC90) was 0.25 µg/mL (≈ 0.816 µM). For the same molecule, the MIC90 ([9]; C. glabrata, RPMI 1640, 2% glucose, 37°C, duplicate, read-out: MIC90) was 16 µg/mL (≈ 52.2 µM) and the MIC90 ([10]; R. arrhizus (oryzae), RPMI 1640, 2% glucose, read by eye and microscopically, read-out: MIC90) was over 32 µg/mL.

For `c1ccc(CN2CCC(N3CCC4CCCCC4C3)CC2)cc1` (stereo not shown) [7c, 2‐(1‐Benzylpiperidin‐4‐yl)decahydroisoquinoline], the MIC [2, 11] was over 100 µg/mL and the MIC ([2]; 48 h, read-out: MIC100) was over 100 µg/mL.

With `COc1cc2c(cc1OC)CN(C1CCN(Cc3ccccc3)CC1)CC2` [7b, 2‐(1‐Benzylpiperidin‐4‐yl)‐6,7‐dimethoxy‐1,2,3,4‐tetrahydroisoquinoline] the MIC [2, 11] was over 100 µg/mL, the MIC ([2]; 48 h, read-out: MIC100) was over 100 µg/mL and the MIC90 [3] was over 32 µg/mL. For the same molecule, the MIC90 [4] was over 32 µg/mL, the MIC90 [5] was over 32 µg/mL and the MIC90 [6] was over 32 µg/mL. For the same molecule, the MIC90 [7] was over 32 µg/mL, the MIC90 [8] was over 32 µg/mL and the MIC90 [9] was over 32 µg/mL. It also gave an MIC90 [10] of over 32 µg/mL.

In the case of `COc1cc2c(cc1OC)CN(C1CCN(C(=O)OC(C)(C)C)CC1)CC2` [3b, tert‐Butyl 4‐(6,7‐dimethoxy‐3,4‐dihydroisoquinolin‐2(1H)‐yl)piperidine‐1‐carboxylate], the MIC [2, 11] is reported as over 100 µg/mL and the MIC ([2]; 48 h, read-out: MIC100) is reported as over 100 µg/mL.

`Clc1ccccc1C(c1ccccc1)(c1ccccc1)n1ccnc1` [Clotrimazole, reference compound] showed an MIC ([2]; microdilution, 48 h, 25°C, 600 nm, read-out: MIC100) of 0.4 µg/mL and an MIC ([2]; microdilution, same value given in µM, read-out: MIC100 (molar value in brackets)) of 1.2 µM.

For `CCCC(=O)N1CCC(N2CCC3CCCCC3C2)CC1` (racemic) [5g, (±)‐1‐[4‐(Octahydroisoquinolin‐2(1H)‐yl)‐piperidin‐1‐yl]‐butan‐1‐one], the MIC [2, 11] was over 100 µg/mL and the MIC ([2]; 48 h, read-out: MIC100) was over 100 µg/mL.

In the case of `CCCC(=O)N1CCC(N2CCc3cc(OC)c(OC)cc3C2)CC1` [5d, 1‐[4‐(6,7‐Dimethoxy‐3,4‐dihydroisoquinolin‐2(1H)‐yl)‐piperidin‐1‐yl]butan‐1‐one], the MIC [2, 11] is reported as over 100 µg/mL and the MIC ([2]; 48 h, read-out: MIC100) is reported as over 100 µg/mL.

In the case of `CC[C@@H]([C@H](C)O)n1ncn(-c2ccc(N3CCN(c4ccc(OC[C@@H]5CO[C@@](Cn6cncn6)(c6ccc(F)cc6F)C5)cc4)CC3)cc2)c1=O` [Posaconazole, reference compound], the IC50 [1] is reported as 5 µg/mL (≈ 7.13 µM).
